We go through two molecules from publication PMC8213057, “Targeting ALK2: An Open Science Approach to Developing Therapeutics for the Treatment of Diffuse Intrinsic Pontine Glioma” (Journal of Medicinal Chemistry, 2020).

One assay deals with MAPKAPK3 (Homo sapiens, UniProt Q16644). Description: biochemical. As to conditions: read-out: % enzyme activity, 1 μM; Run 1, Run 2.
The target of the next assay is MST4 (Homo sapiens, UniProt Q9P289). To be noted: 1 μM; Run 1, Run 2.
In another assay the target is T1, Haspin (Homo sapiens, UniProt Q8TF76).
T1 sequence (Q8TF76 1-798): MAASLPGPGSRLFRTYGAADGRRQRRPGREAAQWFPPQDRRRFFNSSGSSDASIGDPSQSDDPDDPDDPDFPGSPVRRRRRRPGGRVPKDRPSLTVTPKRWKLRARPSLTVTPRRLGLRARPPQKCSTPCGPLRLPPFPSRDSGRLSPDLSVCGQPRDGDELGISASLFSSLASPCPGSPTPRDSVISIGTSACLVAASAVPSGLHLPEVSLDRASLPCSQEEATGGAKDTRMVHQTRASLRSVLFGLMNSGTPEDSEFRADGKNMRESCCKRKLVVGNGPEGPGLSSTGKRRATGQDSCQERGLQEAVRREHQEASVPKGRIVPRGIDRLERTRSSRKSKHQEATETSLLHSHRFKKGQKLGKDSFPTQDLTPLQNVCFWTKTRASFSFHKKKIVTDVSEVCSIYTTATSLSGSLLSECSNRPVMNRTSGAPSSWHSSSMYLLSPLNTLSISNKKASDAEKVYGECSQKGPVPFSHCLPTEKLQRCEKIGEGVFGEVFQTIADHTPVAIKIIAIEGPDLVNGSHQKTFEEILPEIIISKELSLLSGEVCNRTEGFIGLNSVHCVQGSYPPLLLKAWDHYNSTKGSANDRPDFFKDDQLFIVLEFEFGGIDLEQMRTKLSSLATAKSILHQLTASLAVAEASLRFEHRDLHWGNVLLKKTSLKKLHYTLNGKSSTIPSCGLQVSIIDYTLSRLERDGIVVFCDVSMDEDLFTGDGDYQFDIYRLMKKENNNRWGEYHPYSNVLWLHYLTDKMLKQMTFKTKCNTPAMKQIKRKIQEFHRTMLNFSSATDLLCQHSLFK
To be noted: 1 μM; Run 1, Run 2.

A further assay concerns the target SGK2 (Homo sapiens, UniProt Q9HBY8). As to the kind of experiment: biochemical. To be noted: read-out: % enzyme activity, 1 μM; Run 1, Run 2.
The target in another assay is T2, NEK1 (Homo sapiens, UniProt Q96PY6).
T2 sequence (Q96PY6 1-1258): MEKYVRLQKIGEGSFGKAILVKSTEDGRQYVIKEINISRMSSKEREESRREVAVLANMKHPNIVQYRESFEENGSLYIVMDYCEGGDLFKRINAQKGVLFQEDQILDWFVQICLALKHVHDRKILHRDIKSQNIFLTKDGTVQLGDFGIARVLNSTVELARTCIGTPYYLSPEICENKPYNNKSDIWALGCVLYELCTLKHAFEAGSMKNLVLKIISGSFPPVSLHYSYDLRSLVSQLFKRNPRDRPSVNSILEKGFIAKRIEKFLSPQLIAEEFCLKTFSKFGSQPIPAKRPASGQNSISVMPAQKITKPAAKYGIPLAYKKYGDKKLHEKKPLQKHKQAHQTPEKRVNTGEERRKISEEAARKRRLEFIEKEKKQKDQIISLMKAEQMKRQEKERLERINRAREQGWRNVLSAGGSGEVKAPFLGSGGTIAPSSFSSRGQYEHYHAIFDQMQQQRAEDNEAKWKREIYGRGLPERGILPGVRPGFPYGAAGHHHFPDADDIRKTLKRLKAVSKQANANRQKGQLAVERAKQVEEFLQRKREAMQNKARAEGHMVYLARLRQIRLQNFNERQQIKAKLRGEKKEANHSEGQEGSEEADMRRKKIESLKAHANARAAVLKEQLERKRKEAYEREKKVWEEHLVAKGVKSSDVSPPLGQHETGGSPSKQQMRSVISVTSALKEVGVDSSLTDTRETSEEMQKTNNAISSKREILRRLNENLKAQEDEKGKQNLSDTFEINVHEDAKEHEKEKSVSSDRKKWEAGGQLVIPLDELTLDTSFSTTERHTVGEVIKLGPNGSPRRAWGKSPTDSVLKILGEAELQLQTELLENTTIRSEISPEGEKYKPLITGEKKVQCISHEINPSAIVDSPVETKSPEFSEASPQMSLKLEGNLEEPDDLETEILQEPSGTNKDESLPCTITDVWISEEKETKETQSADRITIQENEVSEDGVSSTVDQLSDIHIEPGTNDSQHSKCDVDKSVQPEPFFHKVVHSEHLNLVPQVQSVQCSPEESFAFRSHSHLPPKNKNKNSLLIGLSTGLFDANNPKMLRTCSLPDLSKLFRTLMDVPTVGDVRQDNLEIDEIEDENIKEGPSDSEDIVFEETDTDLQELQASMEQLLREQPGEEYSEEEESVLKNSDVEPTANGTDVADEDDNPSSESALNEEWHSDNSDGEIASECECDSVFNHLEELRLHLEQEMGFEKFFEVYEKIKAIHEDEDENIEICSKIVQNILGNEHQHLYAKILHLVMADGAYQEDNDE
As to the kind of experiment: biochemical. As to conditions: read-out: % enzyme activity, 1 μM; Run 1, Run 2.

Sequence of SGK2 (Q9HBY8 whole entry): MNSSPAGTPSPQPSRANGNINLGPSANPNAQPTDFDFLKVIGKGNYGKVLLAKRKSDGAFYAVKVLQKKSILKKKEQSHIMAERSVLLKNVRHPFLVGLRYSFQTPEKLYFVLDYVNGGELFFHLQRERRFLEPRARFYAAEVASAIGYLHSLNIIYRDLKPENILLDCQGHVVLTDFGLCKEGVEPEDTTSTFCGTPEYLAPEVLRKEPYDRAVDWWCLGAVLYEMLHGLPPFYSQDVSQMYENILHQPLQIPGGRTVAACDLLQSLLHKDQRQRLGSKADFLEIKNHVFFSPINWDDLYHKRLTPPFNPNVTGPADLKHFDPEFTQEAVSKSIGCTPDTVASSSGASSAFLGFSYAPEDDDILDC
Sequence of MST4 (Q9P289 whole entry): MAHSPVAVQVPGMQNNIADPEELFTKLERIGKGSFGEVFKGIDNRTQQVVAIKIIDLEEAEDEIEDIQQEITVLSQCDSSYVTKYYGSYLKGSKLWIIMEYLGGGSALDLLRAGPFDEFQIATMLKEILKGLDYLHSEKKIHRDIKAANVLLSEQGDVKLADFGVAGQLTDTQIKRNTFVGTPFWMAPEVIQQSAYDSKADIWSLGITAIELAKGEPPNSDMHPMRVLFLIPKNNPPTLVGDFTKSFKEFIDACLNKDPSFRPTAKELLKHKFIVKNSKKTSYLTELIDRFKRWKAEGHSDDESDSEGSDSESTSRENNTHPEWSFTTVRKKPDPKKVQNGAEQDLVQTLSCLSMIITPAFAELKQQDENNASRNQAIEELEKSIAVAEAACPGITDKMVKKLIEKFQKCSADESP
Sequence of MAPKAPK3 (Q16644 whole entry): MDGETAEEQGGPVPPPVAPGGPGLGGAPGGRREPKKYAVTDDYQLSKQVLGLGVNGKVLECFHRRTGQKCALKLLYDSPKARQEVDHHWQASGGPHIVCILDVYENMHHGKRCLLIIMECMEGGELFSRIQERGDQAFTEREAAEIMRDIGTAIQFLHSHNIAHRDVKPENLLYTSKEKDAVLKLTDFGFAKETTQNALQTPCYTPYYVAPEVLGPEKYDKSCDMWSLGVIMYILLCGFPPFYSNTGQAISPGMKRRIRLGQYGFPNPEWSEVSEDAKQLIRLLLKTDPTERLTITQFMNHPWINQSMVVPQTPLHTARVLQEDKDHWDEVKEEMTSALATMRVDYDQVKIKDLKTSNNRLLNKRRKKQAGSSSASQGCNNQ

With `COc1cc(-c2cncc(-c3ccc(N4CCN(C)CC4)cc3)c2C)cc(F)c1C(N)=O` [Compound 26a, 2-Fluoro-6-methoxy-4-(4-methyl-5-(4-(4-methylpiperazin-1-yl)phenyl)pyridin-3-yl)benzamide], the remaining activity at 1 µM on MAPKAPK3 stood at 99.5%; on SGK2 it was 102%; on NEK1, 87.6%. For the same molecule, the “% enzyme activity” value worked out at 85.32% at MST4 and 82.77% at Haspin.
For `COc1cc(-c2cncc(-c3ccc(N4C[C@@H](C)N(C)[C@@H](C)C4)cc3)c2C)cc(F)c1C(N)=O` [Compound 26c, 2-Fluoro-6-methoxy-4-(4-methyl-5-(4-((3R,5S)-3,4,5-trimethylpiperazin-1-yl)phenyl)pyridin-3-yl)benzamide], the remaining activity at 1 µM on MAPKAPK3 came out at 97.2%; at SGK2, 103%; at NEK1 it was 88.1%. The “% enzyme activity” value is 90.97% on MST4 and 82.31% on Haspin.
